From ChEMBL document CHEMBL4000192, “Identification and optimization of a novel series of indoleamine 2,3-dioxygenase inhibitors” (Bioorg Med Chem Lett, 2017) come the findings set out here.

Structures are written as SMILES.

Data set [1] relates to HeLa. Description: Cytotoxic activity against human HeLa cells by […]. Type of data set: cell-based.
Data set [2] can be described thus: Metabolic stability in rat liver microsomes assessed as parent compound remaining at 0.5 uM after 10 mins. Type of data set: ADME, microsome. The settings on record: read-out: Stability. Background: Microsomes from liver hold many membrane-bound enzymes, among them those of drug oxidation.
The nature of data set [3]: Metabolic stability in human liver microsomes assessed as parent compound remaining at 0.5 uM after 10 mins. Type of data set: ADME, microsome. Conditions: read-out: Stability.
Data set [4] can be described thus: Metabolic stability in mouse liver microsomes assessed as parent compound remaining at 0.5 uM after 10 mins. Conditions: read-out: Stability. Type of data set: ADME, microsome.
The target in data set [5] is T1, Indoleamine 2,3-dioxygenase 1 (Homo sapiens, UniProt P14902). The data set is described as follows: Inhibition of IDO1 in IFN-gamma stimulated human HeLa cells assessed as inhibition of kynurenine production preincubated with cells followed by IFN-gamma addition measured after 20 hrs. Type of data set: cell-based.
Target sequence in this assay (P14902 whole entry): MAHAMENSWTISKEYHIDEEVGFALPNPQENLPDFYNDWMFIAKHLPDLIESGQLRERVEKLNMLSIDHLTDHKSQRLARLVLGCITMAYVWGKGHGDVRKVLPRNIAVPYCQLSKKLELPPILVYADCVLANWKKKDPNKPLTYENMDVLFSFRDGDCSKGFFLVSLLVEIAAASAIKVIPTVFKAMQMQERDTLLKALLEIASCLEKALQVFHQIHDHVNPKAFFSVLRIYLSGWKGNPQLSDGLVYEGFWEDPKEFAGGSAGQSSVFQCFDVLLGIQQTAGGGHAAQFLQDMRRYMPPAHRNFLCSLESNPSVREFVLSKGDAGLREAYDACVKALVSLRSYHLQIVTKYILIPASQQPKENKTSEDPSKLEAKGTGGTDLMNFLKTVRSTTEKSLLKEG
For data set [6], the target named is Cytochrome P450 2C9 (Homo sapiens, UniProt P11712). The data set is described as follows: Inhibition of CYP2C9 (unknown origin). Type of data set: ADME.
Data set [7] deals with Cytochrome P450 2D6 (Homo sapiens, UniProt P10635). Description: Inhibition of CYP2D6 (unknown origin). Type of data set: ADME.
Data set [8] has as its target T2, Cytochrome P450 2C8 (Homo sapiens, UniProt P10632).
T2 sequence (P10632 whole entry): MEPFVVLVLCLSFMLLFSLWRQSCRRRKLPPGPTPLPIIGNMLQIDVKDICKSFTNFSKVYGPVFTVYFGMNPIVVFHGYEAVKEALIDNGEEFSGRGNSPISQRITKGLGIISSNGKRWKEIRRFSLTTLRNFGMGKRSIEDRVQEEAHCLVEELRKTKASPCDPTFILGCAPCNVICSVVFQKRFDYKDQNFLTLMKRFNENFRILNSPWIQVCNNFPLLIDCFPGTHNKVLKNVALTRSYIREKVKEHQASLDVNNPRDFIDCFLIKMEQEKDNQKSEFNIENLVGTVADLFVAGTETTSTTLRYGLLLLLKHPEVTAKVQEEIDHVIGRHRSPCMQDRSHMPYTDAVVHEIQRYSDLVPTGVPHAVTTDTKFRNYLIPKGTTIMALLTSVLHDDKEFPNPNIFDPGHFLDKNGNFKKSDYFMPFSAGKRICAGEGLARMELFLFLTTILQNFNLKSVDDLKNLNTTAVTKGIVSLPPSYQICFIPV
Description: Inhibition of CYP2C8 (unknown origin). Type of data set: ADME.

Data set [9] has as its target T3, Cytochrome P450 2B6 (Homo sapiens, UniProt P20813).
T3 sequence (P20813 whole entry): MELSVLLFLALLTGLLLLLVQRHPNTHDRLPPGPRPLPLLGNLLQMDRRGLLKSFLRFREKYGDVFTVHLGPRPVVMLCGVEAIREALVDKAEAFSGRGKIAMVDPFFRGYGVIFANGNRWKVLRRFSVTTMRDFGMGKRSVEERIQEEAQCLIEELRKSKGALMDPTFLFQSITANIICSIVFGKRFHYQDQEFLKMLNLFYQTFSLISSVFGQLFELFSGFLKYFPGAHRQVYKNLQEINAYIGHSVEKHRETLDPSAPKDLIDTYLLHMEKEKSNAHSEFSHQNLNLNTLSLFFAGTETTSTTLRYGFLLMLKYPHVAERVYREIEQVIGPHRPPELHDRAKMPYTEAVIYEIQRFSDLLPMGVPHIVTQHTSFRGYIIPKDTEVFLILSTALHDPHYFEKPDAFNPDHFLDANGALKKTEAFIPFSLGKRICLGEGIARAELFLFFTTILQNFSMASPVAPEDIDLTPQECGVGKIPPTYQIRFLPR
The data set is described as follows: Inhibition of CYP2B6 (unknown origin). Type of data set: ADME.

In data set [10] the target is T4, Cytochrome P450 3A4 (Homo sapiens, UniProt P08684). The data set is described as follows: Inhibition of CYP3A4 (unknown origin) using BFC as substrate. Type of data set: ADME.
The target of data set [11] is T4, Cytochrome P450 3A4. The data set is described as follows: Inhibition of CYP3A4 (unknown origin) using BZR as substrate. Type of data set: ADME.
Data set [12] deals with Cytochrome P450 2C19 (Homo sapiens, UniProt P33261). The data set is described as follows: Inhibition of CYP2C19 (unknown origin). Type of data set: ADME.
Data set [13] has as its target T5, Cytochrome P450 1A2 (Homo sapiens, UniProt P05177).
T5 sequence (P05177 whole entry): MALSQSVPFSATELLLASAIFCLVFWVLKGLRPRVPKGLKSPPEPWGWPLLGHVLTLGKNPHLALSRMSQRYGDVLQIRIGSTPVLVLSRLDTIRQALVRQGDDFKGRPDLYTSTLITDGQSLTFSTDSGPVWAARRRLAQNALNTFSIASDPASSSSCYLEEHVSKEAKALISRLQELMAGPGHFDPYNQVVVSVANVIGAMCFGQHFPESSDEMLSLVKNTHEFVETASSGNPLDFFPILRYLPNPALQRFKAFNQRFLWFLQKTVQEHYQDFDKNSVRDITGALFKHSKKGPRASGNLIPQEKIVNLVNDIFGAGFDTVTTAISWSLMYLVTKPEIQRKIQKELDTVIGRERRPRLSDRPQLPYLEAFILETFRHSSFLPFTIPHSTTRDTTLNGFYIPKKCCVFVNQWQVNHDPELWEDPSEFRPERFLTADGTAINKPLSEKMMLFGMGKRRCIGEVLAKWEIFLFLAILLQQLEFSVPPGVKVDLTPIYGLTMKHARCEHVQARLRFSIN
The data set is described as follows: Inhibition of CYP1A2 (unknown origin). Type of data set: ADME.

For data set [14], the target named is T1, Indoleamine 2,3-dioxygenase 1. Description: Inhibition of IDO1 (unknown origin) using tryptophan as substrate preincubated for 15 mins followed by substrate addition by high-throughput screening assay.
Target sequence in this assay (P14902 whole entry): as the sequence (P14902 whole entry) above
Data set [15] has the same target. Description: Inhibition of IDO1 (unknown origin) at 25 uM using tryptophan as substrate preincubated for 15 mins followed by substrate addition by high-throughput screening assay relative to control.
Target sequence in this assay (P14902 whole entry, looked up): as the sequence (P14902 whole entry) above

Cytochrome P450 2C9, sequence (P11712 whole entry): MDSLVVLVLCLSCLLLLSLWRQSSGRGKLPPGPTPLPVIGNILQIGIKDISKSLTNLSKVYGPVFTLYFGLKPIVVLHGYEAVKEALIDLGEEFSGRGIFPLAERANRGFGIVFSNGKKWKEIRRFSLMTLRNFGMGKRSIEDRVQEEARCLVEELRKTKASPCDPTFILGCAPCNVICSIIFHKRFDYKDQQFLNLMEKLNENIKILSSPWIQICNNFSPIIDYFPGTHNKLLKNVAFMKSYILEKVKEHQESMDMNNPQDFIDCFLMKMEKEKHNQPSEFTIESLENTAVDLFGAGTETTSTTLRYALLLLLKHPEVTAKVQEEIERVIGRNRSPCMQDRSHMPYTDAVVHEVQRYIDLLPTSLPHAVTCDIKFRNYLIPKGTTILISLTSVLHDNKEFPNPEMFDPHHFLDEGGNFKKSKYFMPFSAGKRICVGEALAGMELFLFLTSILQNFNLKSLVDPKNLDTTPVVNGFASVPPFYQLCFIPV
Cytochrome P450 2D6, sequence (P10635 whole entry): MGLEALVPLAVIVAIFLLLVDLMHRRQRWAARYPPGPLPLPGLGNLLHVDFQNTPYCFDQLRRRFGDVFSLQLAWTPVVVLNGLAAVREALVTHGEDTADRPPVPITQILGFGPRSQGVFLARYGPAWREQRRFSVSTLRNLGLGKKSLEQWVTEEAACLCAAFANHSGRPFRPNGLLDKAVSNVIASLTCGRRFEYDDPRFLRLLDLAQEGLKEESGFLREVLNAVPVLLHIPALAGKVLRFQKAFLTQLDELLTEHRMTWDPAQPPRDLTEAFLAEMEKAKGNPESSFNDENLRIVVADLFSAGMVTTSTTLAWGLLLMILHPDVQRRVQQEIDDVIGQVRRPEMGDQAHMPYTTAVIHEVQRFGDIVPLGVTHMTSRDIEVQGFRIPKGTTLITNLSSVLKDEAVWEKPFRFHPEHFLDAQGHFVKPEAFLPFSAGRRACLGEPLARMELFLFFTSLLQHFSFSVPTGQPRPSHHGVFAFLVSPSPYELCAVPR
T4 sequence (P08684 whole entry): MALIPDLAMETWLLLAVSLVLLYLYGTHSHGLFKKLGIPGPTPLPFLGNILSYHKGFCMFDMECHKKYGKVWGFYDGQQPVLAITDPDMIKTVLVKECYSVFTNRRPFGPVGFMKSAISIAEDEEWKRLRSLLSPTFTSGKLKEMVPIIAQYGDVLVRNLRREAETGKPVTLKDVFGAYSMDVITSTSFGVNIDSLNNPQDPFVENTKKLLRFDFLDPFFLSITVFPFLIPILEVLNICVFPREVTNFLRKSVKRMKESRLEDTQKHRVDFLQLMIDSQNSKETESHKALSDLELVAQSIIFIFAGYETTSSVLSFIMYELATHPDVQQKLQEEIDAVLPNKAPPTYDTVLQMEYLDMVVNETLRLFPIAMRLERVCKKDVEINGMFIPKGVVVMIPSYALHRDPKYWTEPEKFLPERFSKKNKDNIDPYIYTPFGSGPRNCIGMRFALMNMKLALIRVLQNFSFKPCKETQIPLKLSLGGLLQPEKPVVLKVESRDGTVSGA
Cytochrome P450 2C19, sequence (P33261 whole entry): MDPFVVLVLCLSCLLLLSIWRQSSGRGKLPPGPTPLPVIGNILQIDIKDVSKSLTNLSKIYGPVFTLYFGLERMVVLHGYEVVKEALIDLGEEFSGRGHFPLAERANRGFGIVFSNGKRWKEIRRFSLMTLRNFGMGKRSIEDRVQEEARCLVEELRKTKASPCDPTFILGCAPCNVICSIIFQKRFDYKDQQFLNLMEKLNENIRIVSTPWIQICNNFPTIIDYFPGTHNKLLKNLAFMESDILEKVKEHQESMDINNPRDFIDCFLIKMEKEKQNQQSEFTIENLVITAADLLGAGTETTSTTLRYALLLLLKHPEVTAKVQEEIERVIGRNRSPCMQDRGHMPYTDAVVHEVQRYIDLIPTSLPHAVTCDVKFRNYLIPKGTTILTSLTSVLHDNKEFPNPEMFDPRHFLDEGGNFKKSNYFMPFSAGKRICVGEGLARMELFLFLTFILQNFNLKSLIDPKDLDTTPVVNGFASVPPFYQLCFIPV

Regarding `C#CCOc1cccc(Oc2ccc(-c3ccc(OC)c(C(=O)O)c3)cc2NC(=O)Nc2ccc(C)cc2)c1C`, the IC50 in [1] was more than 30 µM.
The same measure, in the same setting: under `Cc1cccc(NC(=O)Nc2cc(-c3cccc(C(=O)O)c3)ccc2Oc2ccccc2C(C)(C)C)c1` stands more than 30 µM; under `CCCc1ccccc1Oc1ccc(-c2ccc(OC)c(C(=O)O)c2)cc1NC(=O)Nc1ccc(C)cc1`, more than 30 µM.
In data set [1], `COc1ccc(-c2ccc(Oc3cccc4c3CCCC4)c(NC(=O)Nc3ccccc3F)c2)cc1C(=O)O` showed a 50% inhibitory concentration (IC50) of more than 10 µM. Moreover, the remaining at 10 min, 0.5 µM in [2] is 72%; in data set [3], 95%; in [4], 77%.
Turning to `CC(C)(C)c1ccccc1Oc1ccc(-c2cccc(C(=O)O)c2)cc1NC(=O)Nc1ccc(OC(F)F)cc1`, the IC50 in data set [5] was 2.6 µM; in data set [1] it was more than 30 µM.
The corresponding values for `COc1ccc(-c2ccc(Oc3ccccc3C(C)C)c(NC(=O)Nc3ccc(C)cc3)c2)cc1C(=O)O` are 0.34 µM and more than 30 µM.
Regarding `COc1ccc(-c2ccc(Oc3ccccc3C(C)(C)C)c(NC(=O)Nc3ccc(C)cc3)c2)cc1C(=O)O`, the concentration for half-maximal inhibition (IC50) in data set [5] was 0.35 µM; in data set [1], more than 30 µM.
For `CCc1ccccc1Oc1ccc(-c2ccc(OC)c(C(=O)O)c2)cc1NC(=O)Nc1ccc(C)cc1`, the IC50 in data set [1] is more than 30 µM.
As for `COc1ccc(-c2ccc(Oc3cccc4c3CCCC4)c(NC(=O)Nc3ccccc3C)c2)cc1C(=O)O`, the 50% inhibitory concentration (IC50) in [6] was more than 3 µM; in data set [5] it was 0.049 µM; in [1] it was more than 30 µM; in data set [7], more than 3 µM; in data set [8], more than 3 µM; in data set [9], more than 3 µM. In addition, the IC50 in [10], in data set [11], in data set [12] and in [13] was more than 3 µM throughout. Moreover, the remaining at 10 min, 0.5 µM in data set [2] turned out to be 65%; in [3], 41%; in data set [4], 70%.
Turning to `COc1ccc(-c2ccc(Oc3cccc(C)c3C)c(NC(=O)Nc3ccc(C)cc3)c2)cc1C(=O)O`, the IC50 in data set [1] is more than 30 µM.
As for `CC(C)(C)c1ccccc1Oc1ccc(-c2cccc(C(=O)O)c2)cc1NC(=O)Nc1ccccc1`, the IC50 is 1.5 µM in [5] and more than 30 µM in [1].
Consider `Cc1ccc(NC(=O)Nc2cc(-c3cccc(C(=O)O)c3)ccc2Oc2ccccc2C(C)(C)C)cc1`, for which the IC50 in [1] is more than 30 µM.
Take `Cc1ccccc1NC(=O)Nc1cc(-c2cccc(C(=O)O)c2)ccc1Oc1ccccc1C(C)(C)C`: the concentration for half-maximal inhibition (IC50) in data set [5] is 1 µM; in data set [1] it was more than 30 µM.
With `Cc1ccc(NC(=O)Nc2cc(-c3cccc(C(=O)O)c3F)ccc2Oc2ccccc2C(C)(C)C)cc1`, the IC50 in data set [5] is 4.5 µM; in [1], more than 30 µM.
As to `COc1ccc(-c2ccc(Oc3cccc4c3CCCC4)c(NC(=O)Nc3ccccc3)c2)cc1C(=O)O`, the figures for the IC50 in data set [5] and in data set [1] were 0.062 µM and more than 10 µM, respectively. For the same compound, the remaining at 10 min, 0.5 µM in [2] was 92%; in [3] it was 80%; in [4], 96%.
In turn, `COc1ccc(-c2ccc(Oc3ccccc3C)c(NC(=O)Nc3ccc(C)cc3)c2)cc1C(=O)O` gave an IC50 in data set [1] of more than 30 µM.
In turn, `COc1ccc(-c2ccc(Oc3ccccc3Cl)c(NC(=O)Nc3ccc(C)cc3)c2)cc1C(=O)O` displayed an IC50 in data set [1] of more than 30 µM.
On to `CC(C)(C)c1ccccc1Oc1ccc(-c2cccc(C(=O)O)c2)cc1NC(=O)Nc1ccc(OC(F)(F)F)cc1`, for which the IC50 was 2.5 µM in data set [6]; 4 µM in data set [5]; 22 µM in data set [1]; 0.087 µM in [14]; more than 5 µM in [7]; more than 5 µM in [8]. For the same compound, the IC50 in [9], in data set [10], in data set [11], in data set [12] and in data set [13] was more than 5 µM throughout. In data set [15], the inhibition was more than 75%.
On to `COc1ccc(-c2ccc(Oc3ccccc3C(C)(C)CO)c(NC(=O)Nc3ccc(C)cc3)c2)cc1C(=O)O`, for which the IC50 in data set [5] is 2.4 µM; in data set [1], more than 30 µM.
The compound `CC(C)(C)c1ccccc1Oc1ccc(-c2cccc(C(=O)O)c2)cc1NC(=O)Nc1ccc(Br)cc1` returned an IC50 in data set [1] of more than 30 µM.
In the case of `COc1ccc(-c2ccc(Oc3cccc4c3CCCC4)c(NC(=O)Nc3ccccc3Cl)c2)cc1C(=O)O`, the IC50 in data set [6] is more than 3 µM; in data set [5], 0.022 µM; in data set [1], more than 30 µM; in data set [7], more than 3 µM; in data set [8], more than 3 µM; in [9], more than 3 µM. The IC50 in data set [10], in data set [11], in [12] and in [13] was more than 3 µM each time. Moreover, the figures for the remaining at 10 min, 0.5 µM in data set [2], in [3] and in data set [4] were 83%, 74% and 74%, respectively.
`COc1ccccc1Oc1ccc(-c2ccc(OC)c(C(=O)O)c2)cc1NC(=O)Nc1ccc(C)cc1` yielded a half-inhibitory concentration (IC50) in [1] of more than 30 µM.
On the same count and under the same terms, under `COc1ccc(-c2ccc(Oc3cccc4c3CCC4)c(NC(=O)Nc3ccc(C)cc3)c2)cc1C(=O)O` stands more than 30 µM; under `CC(C)(C)c1ccccc1Oc1ccc(-c2cccc(C(=O)O)c2)cc1NC(=O)Nc1ccc(Cl)cc1`, more than 30 µM.
On the same count and under the same terms, under `CCOc1ccc(-c2ccc(Oc3ccccc3C(C)(C)C)c(NC(=O)Nc3ccc(C)cc3)c2)cc1C(=O)O` stands more than 30 µM.
As for `COc1ccc(-c2ccc(Oc3cccc4c3CCCC4)c(NC(=O)Nc3cccc(C)c3)c2)cc1C(=O)O`, the IC50 in [6] was more than 3 µM; in [1] it was more than 30 µM; in data set [7], more than 3 µM; in data set [8], more than 3 µM; in [9], more than 3 µM; in data set [10], more than 3 µM. Further, the IC50 in [11], in [12] and in [13] was more than 3 µM each time. Moreover, the remaining at 10 min, 0.5 µM is 71% in [2], 84% in data set [3] and 86% in data set [4].
Turning to `COc1ccc(NC(=O)Nc2cc(-c3cccc(C(=O)O)c3)ccc2Oc2ccccc2C(C)(C)C)cc1`, the IC50 in data set [1] was more than 30 µM.
On to `Cc1ccc(NC(=O)Nc2cc(-c3cc(Cl)cc(C(=O)O)c3)ccc2Oc2ccccc2C(C)(C)C)cc1`, for which the results for the IC50 in data set [5] and in [1] were 0.25 µM and more than 30 µM, respectively.
As to `COc1ccc(-c2ccc(Oc3cccc4c3CCCC4)c(NC(=O)Nc3ccc(C)cc3)c2)cc1C(=O)O`, the results for the IC50 in data set [5] and in data set [1] were 0.1 µM and more than 30 µM, respectively. For the same compound, the remaining at 10 min, 0.5 µM in data set [2] is 95%; in data set [3] it was 100%; in [4], 69%.
For the compound `Cc1ccc(NC(=O)Nc2cc(-c3ccc(Cl)c(C(=O)O)c3)ccc2Oc2ccccc2C(C)(C)C)cc1`, the IC50 in data set [1] is more than 30 µM.
`COc1ccc(-c2ccc(Oc3cccc(C(C)(C)C)c3)c(NC(=O)Nc3ccc(C)cc3)c2)cc1C(=O)O`: the IC50 in data set [1] was more than 30 µM.
Consider `COc1ccc(-c2ccc(Oc3ccccc3C#N)c(NC(=O)Nc3ccc(C)cc3)c2)cc1C(=O)O`, for which the results for the IC50 in data set [5] and in data set [1] were 6 µM and more than 30 µM, respectively.

As usually defined, the IC50 is the point on the concentration scale where inhibition reaches its midpoint. The term inhibition denotes the relative decrease from the control value, in per cent. Low readings indicate a response near the control, high ones a response far below the control.
